Earlier results in PubChem BioAssay AID1259409 (Chemical Carcinogenesis Research Information System (CCRIS), 2018).

System: rodent chemically induced tumor inhibition, incidence and multiplicity
Experiment: CCRIS tumor inhibitor studies

For `CC1=C(/C=C/C(C)=C/C=C/C(C)=C/C(=O)Nc2ccc(O)cc2)C(C)(C)CCC1`, the “tumour outcome (control, treated, inhibition, significance)” value (Carcinogen: N-METHYL-N-NITROSOUREA, 684-93-5, Dose [Inhibitor]: 2 MMOL/KG DIET DAILY STARTING 12 D AFTER CARCINOGEN TREATMENT THROUGH ABOUT 8 MO AFTER CARCINOGEN DOSE (STUDY DURATION:, Route [Inhibitor]: ORAL, Species: RAT, Strain/Sex: F344/MALE, Target Tissue: Type of Lesion: COLON: ADENOMA, Dose [Carcinogen]: 2.5 MG 1/WK FOR 2 WK, Promoter: NONE USED) is listed as 16/39 (41%), 11/30 (37%), 10%, not significant, the “tumour outcome (control, treated, inhibition, significance)” value (Carcinogen: N-METHYL-N-NITROSOUREA, 684-93-5, Dose [Inhibitor]: 587 MG/KG DIET FROM D 7-20 AFTER CARCINOGEN ADMINISTRATION THEN REDUCED TO 391 MG/KG DIET FOR REMAINDER OF STUDY (STUDY, Route [Inhibitor]: ORAL, Species: RAT, Strain/Sex: SPRAGUE-DAWLEY/FEMALE, Target Tissue: Type of Lesion: MAMMARY GLAND: ADENOCARCINOMA, Dose [Carcinogen]: 20 MG/KG BW ONCE, Promoter: NONE USED) is listed as 64%, 50%, 22%, not significant and the “tumour outcome (control, treated, inhibition, significance)” value (Carcinogen: N-METHYL-N-NITROSOUREA, 684-93-5, Dose [Inhibitor]: 587 MG/KG IN DIET FROM D 7-20 AFTER CARCINOGEN DOSE THEN REDUCED TO 391 MG/KG IN DIET FOR REMAINDER OF STUDY (STUDY DURA, Route [Inhibitor]: ORAL, Species: RAT, Strain/Sex: SPRAGUE-DAWLEY/FEMALE, Target Tissue: Type of Lesion: MAMMARY GLAND: ADENOCARCINOMA, Dose [Carcinogen]: 20 MG/KG BW ONCE, Promoter: NONE USED) is listed as 64%, 50%, 22%, not significant. The “tumour outcome (control, treated, inhibition, significance)” value (Carcinogen: N-METHYL-N-NITROSOUREA, 684-93-5, Dose [Inhibitor]: O.O3 MMOL 3/WK STARTING 12 D THROUGH ABOUT 8 MO AFTER FIRST CARCINOGEN DOSE (STUDY DURATION: APPROXIMATELY 8 MO), Route [Inhibitor]: INTRARECTAL, Species: RAT, Strain/Sex: F344/MALE, Target Tissue: Type of Lesion: COLON: ADENOCARCINOMA, Dose [Carcinogen]: 2.5 MG 1/WK FOR 2 WK, Promoter: NONE USED) was 3/39 (8%), 6/39 (15%), -88%, not significant, the “tumour outcome (control, treated, inhibition, significance)” value (Carcinogen: N-METHYL-N-NITROSOUREA, 684-93-5, Dose [Inhibitor]: O.O3 MMOL 3/WK STARTING 12 D THROUGH ABOUT 8 MO AFTER FIRST CARCINOGEN DOSE (STUDY DURATION: APPROXIMATELY 8 MO), Route [Inhibitor]: INTRARECTAL, Species: RAT, Strain/Sex: F344/MALE, Target Tissue: Type of Lesion: COLON: ADENOMA, Dose [Carcinogen]: 2.5 MG 1/WK FOR 2 WK, Promoter: NONE USED) was 11/39 (28%), 23/39 (59%), -111%, p<0.05 and the “tumour outcome (control, treated, inhibition, significance)” value (Carcinogen: N-METHYL-N-NITROSOUREA, 684-93-5, Dose [Inhibitor]: O.O3 MMOL 3/WK STARTING 15 D PRIOR TO THROUGH ABOUT 8 MO AFTER FIRST CARCINOGEN DOSE (STUDY DURATION: APPROXIMATELY 8 MO, Route [Inhibitor]: INTRARECTAL, Species: RAT, Strain/Sex: F344/MALE, Target Tissue: Type of Lesion: COLON: ADENOCARCINOMA, Dose [Carcinogen]: 2.5 MG 1/WK FOR 2 WK, Promoter: NONE USED) was 3/39 (8%), 5/39 (13%), -63%, not significant. For the same molecule, the “tumour outcome (control, treated, inhibition, significance)” value (Carcinogen: N-METHYL-N-NITROSOUREA, 684-93-5, Dose [Inhibitor]: O.O3 MMOL 3/WK STARTING 15 D PRIOR TO THROUGH ABOUT 8 MO AFTER FIRST CARCINOGEN DOSE (STUDY DURATION: APPROXIMATELY 8 MO, Route [Inhibitor]: INTRARECTAL, Species: RAT, Strain/Sex: F344/MALE, Target Tissue: Type of Lesion: COLON: ADENOMA, Dose [Carcinogen]: 2.5 MG 1/WK FOR 2 WK, Promoter: NONE USED) was 11/39 (28%), 14/39 (36%), -29%, not significant, the “tumour outcome (control, treated, inhibition, significance)” value (Carcinogen: N-METHYL-N-NITROSUREA, 684-93-5, Dose [Inhibitor]: 0, 782 MG/KG OF CASEIN BASED AIN-76A DIET FOR DURATION OF STUDY BEGINNING 7 D PRIOR TO CARCINOGEN DOSE (STUDY DURATION:, Route [Inhibitor]: ORAL, Species: RAT, Strain/Sex: F344/FEMALE, Target Tissue: Type of Lesion: MAMMARY GLAND: TUMOR, Dose [Carcinogen]: 45 MG/KG BW ONCE AT 50 D OF AGE, Promoter: NONE USED) was 18/25 (72%), 21/25 (84%), -17%, not significant and the “tumour outcome (control, treated, inhibition, significance)” value (Carcinogen: N-NITROSOBIS(2-OXOPROPLYL)AMINE [60599-38-4], DL-ETHIONINE [67-21-0], L-METHIONINE [63-68-3], Carcinogen: N-NITROSOBIS(2-OXOPROPLYL)AMINE [60599-38-4], DL-ETHIONINE [67-21-0], L-METHIONINE [63-68-3], Dose [Inhibitor]: 0, 0.0015% IN DIET FOR 55 D BEGINNING ON DAY 50, 1 WK POST LAST CARCINOGEN DOSE (STUDY DURATION: 105 D), Route [Inhibitor]: ORAL, Species: HAMSTER, Target Tissue: Type of Lesion: LIVER: INTRAHEPATIC CHOLANGIOCARCINOMA, Dose [Carcinogen]: 50 MG/KG BOP ONCE ON DAY 0, THEN 20 MG/KG TWICE ON DAYS 18 AND 32, 500 MG/KG DL-ETHIONINE 1X/D FOR 4 D BEGINNING ON DAY, Dose [Carcinogen]: 50 MG/KG BOP ONCE ON DAY 0, THEN 20 MG/KG TWICE ON DAYS 18 AND 32, 500 MG/KG DL-ETHIONINE 1X/D FOR 4 D BEGINNING ON DAY, Promoter: CHOLINE-DEFICIENT DIET) was 7/17 (41%), 8/16 (50%), -22%, not significant. For the same molecule, the “tumour outcome (control, treated, inhibition, significance)” value (Carcinogen: N-NITROSOBIS(2-OXOPROPLYL)AMINE [60599-38-4], DL-ETHIONINE [67-21-0], L-METHIONINE [63-68-3], Carcinogen: N-NITROSOBIS(2-OXOPROPLYL)AMINE [60599-38-4], DL-ETHIONINE [67-21-0], L-METHIONINE [63-68-3], Dose [Inhibitor]: 0, 0.0015% IN DIET FOR 55 D BEGINNING ON DAY 50, 1 WK POST LAST CARCINOGEN DOSE (STUDY DURATION: 105 D), Route [Inhibitor]: ORAL, Species: HAMSTER, Target Tissue: Type of Lesion: PANCREATIC DUCT, CARCINOMA, Dose [Carcinogen]: 50 MG/KG BOP ONCE ON DAY 0, THEN 20 MG/KG TWICE ON DAYS 18 AND 32, 500 MG/KG DL-ETHIONINE 1X/D FOR 4 D BEGINNING ON DAY, Dose [Carcinogen]: 50 MG/KG BOP ONCE ON DAY 0, THEN 20 MG/KG TWICE ON DAYS 18 AND 32, 500 MG/KG DL-ETHIONINE 1X/D FOR 4 D BEGINNING ON DAY, Promoter: CHOLINE-DEFICIENT DIET) was 17/17 (100%), 15/16 (94%), 6%, not significant, the “tumour outcome (control, treated, inhibition, significance)” value (Carcinogen: N-NITROSOBIS(2-OXOPROPLYL)AMINE [60599-38-4], DL-ETHIONINE [67-21-0], L-METHIONINE [63-68-3], Carcinogen: N-NITROSOBIS(2-OXOPROPLYL)AMINE [60599-38-4], DL-ETHIONINE [67-21-0], L-METHIONINE [63-68-3], Dose [Inhibitor]: 0, 0.004% IN DIET FOR 55 D BEGINNING ON DAY 50, 1 WK POST LAST CARCINOGEN DOSE (STUDY DURATION: 105 D), Route [Inhibitor]: ORAL, Species: HAMSTER, Target Tissue: Type of Lesion: LIVER: INTRAHEPATIC CHOLANGIOCARCINOMA, Dose [Carcinogen]: 50 MG/KG BOP ONCE ON DAY 0, THEN 20 MG/KG TWICE ON DAYS 18 AND 32, 500 MG/KG DL-ETHIONINE 1X/D FOR 4 D BEGINNING ON DAY, Dose [Carcinogen]: 50 MG/KG BOP ONCE ON DAY 0, THEN 20 MG/KG TWICE ON DAYS 18 AND 32, 500 MG/KG DL-ETHIONINE 1X/D FOR 4 D BEGINNING ON DAY, Promoter: CHOLINE-DEFICIENT DIET) was 7/17 (41%), 13/19 (68%), -68%, not significant and the “tumour outcome (control, treated, inhibition, significance)” value (Carcinogen: N-NITROSOBIS(2-OXOPROPLYL)AMINE [60599-38-4], DL-ETHIONINE [67-21-0], L-METHIONINE [63-68-3], Carcinogen: N-NITROSOBIS(2-OXOPROPLYL)AMINE [60599-38-4], DL-ETHIONINE [67-21-0], L-METHIONINE [63-68-3], Dose [Inhibitor]: 0, 0.004% IN DIET FOR 55 D BEGINNING ON DAY 50, 1 WK POST LAST CARCINOGEN DOSE (STUDY DURATION: 105 D), Route [Inhibitor]: ORAL, Species: HAMSTER, Target Tissue: Type of Lesion: PANCREATIC DUCT, CARCINOMA, Dose [Carcinogen]: 50 MG/KG BOP ONCE ON DAY 0, THEN 20 MG/KG TWICE ON DAYS 18 AND 32, 500 MG/KG DL-ETHIONINE 1X/D FOR 4 D BEGINNING ON DAY, Dose [Carcinogen]: 50 MG/KG BOP ONCE ON DAY 0, THEN 20 MG/KG TWICE ON DAYS 18 AND 32, 500 MG/KG DL-ETHIONINE 1X/D FOR 4 D BEGINNING ON DAY, Promoter: CHOLINE-DEFICIENT DIET) was 17/17 (100%), 19/19 (100%), 0%, not significant. The “tumour outcome (control, treated, inhibition, significance)” value (Carcinogen: N-NITROSOBIS(2-OXOPROPLYL)AMINE [60599-38-4], DL-ETHIONINE [67-21-0], L-METHIONINE [63-68-3], Carcinogen: N-NITROSOBIS(2-OXOPROPLYL)AMINE [60599-38-4], DL-ETHIONINE [67-21-0], L-METHIONINE [63-68-3], Dose [Inhibitor]: 0, 0.01% IN DIET FOR 55 D BEGINNING ON DAY 50, 1 WK POST LAST CARCINOGEN DOSE (STUDY DURATION: 105 D), Route [Inhibitor]: ORAL, Species: HAMSTER, Target Tissue: Type of Lesion: LIVER: INTRAHEPATIC CHOLANGIOCARCINOMA, Dose [Carcinogen]: 50 MG/KG BOP ONCE ON DAY 0, THEN 20 MG/KG TWICE ON DAYS 18 AND 32, 500 MG/KG DL-ETHIONINE 1X/D FOR 4 D BEGINNING ON DAY, Dose [Carcinogen]: 50 MG/KG BOP ONCE ON DAY 0, THEN 20 MG/KG TWICE ON DAYS 18 AND 32, 500 MG/KG DL-ETHIONINE 1X/D FOR 4 D BEGINNING ON DAY, Promoter: CHOLINE-DEFICIENT DIET) was 7/17 (41%), 14/17 (82%), -100%, p<0.05.
